Where two headings read alike, the source gives them in different places.
Columns and labels:
[1] = test system: isolated Langendorff rat heart; experiment: inotropic and vascular activities in the isolated Langendorff rat heart preparation (CVIH); conditions: isolated perfused rat heart
Procedure: TEST FOR INOTROPIC, CHRONOTROPIC, AND VASCULAR ACTIVITIES IN THE ISOLATED LANGENDORFF RAT HEART PREPARATION (CARDIOVASCULAR ISOLATED HEART - CVIH)
Male rats (400-600 gms) are pretreated with 2000 units Na heparin (Parke-Davis) and anesthetized with Na pentobarbital (50 mg/kg, Butler Co.) administered intraperitoneally. Once anesthetized, the rat heart is rapidly excised, the ascending aorta fitted to the aorta perfusion cannula, and secured with a ligature. The coronary arteries are perfused initially at a rate of about 15 ml/min for two to three minutes, after which they are perfused at constant pressure of 70 mm Hg and temperature of 37° C. The electrocardiogram (ECG) is recorded using two platinum electrodes positioned at the base and apex of the left ventricle (LV). The LV is instrumented via the mitral valve with a 4F Millar catheter tip pressure transducer. The catheter is advanced to the apex then withdrawn slightly. Once properly positioned, the catheter is anchored to the perfusion cannulae with an alligator clip. A second heart is excised, cannulated, and perfused by the same method outlined above. Both hearts are tested in parallel. The standard physiological salt solution (PSS) is a modified Krebs Henseleit bicarbonate buffer of the following composition in mM concentration: NaCl, 127; NaHCO^3, 25; dextrose, 5.5; Na Pyruvate, 2.0; KCl, 4.7; MgSO^4, 1.1; KH 2PO^4, 1.2; CaCl^2 ·2H^2, 2.5; CaNa^2 EDTA, 0.05.
A 30-minute stabilization period is observed before starting the test protocol.
A microprocessor control system is used as a servo mechanism which permits coronary perfusion pressure (CPP) and drug concentration to be maintained constant independent of changes in coronary flow. The level at which CPP and drug concentration are maintained can be changed by commands communicated through the microprocessor keyboard. Dose-response curves are carried out by perfusing concentrated drug solution (DC) at rates proportional to total coronary flow (CFT). Drug concentrations are increased by proportionate increases in the rate of DC infusion over CFT via the microprocessor keyboard. The proportional flow rates for DC:CFT are about 0.00005:1 at the low end and 0.0015:1 at the high end of the dose response curve.
Dose-response curves encompassing at least two log units are carried out in one-half log increments starting at a subthreshold dose and ending at a dose which produces near maximal response.
Measurements for CVIH are maximum positive first derivative of LVP (LV+dP/dtmax), heart rate (HR), and coronary flow (CF). Units are: LV+dP/dtmax, millimeters of mercury/second (mm Hg/sec); HR, beats/minute (bpm) and CF, milliliters/minute (ml/min). LV+dP/dtmax is derived from the LVP signal by a differential amplifier and recorded. HR is calculated from the ECG strip chart recording and CF is calculated by recording analog outputs from pumps 1 and 2. Outputs from pump #1 =CFT and the output from pump #2 =CF for heart B (CFB). CF for heart A (CFA) is calculated ([…]). All pumps are calibrated weekly or when pump tubing is replaced.
Compounds are solubilized in DMSO and diluted with water when possible. EC^25 data are obtained from data that is digitized and averaged in a conventional manner.

dihydropyridine receptor = experiment: inhibition of [3H]-nitrendipine binding in rat brain homogenate; conditions: read-out: IC50 (index of dihydropyridine receptor affinity; inhibition of [3H]-nitrendipine binding)
From the text: *Index of dihydropyridine receptor affinity: IC50 for inhibition of
[^3 H]--nitrendipine binding in rat brain homogenate.

anesthetized dog = experiment: in vivo myocardial inotropic activity in the anesthetized dog; conditions: 1 mg/kg, femoral vein, pentobarbital anesthetized dog
Procedure: TEST FOR IN VIVO MYOCARDIAL INOTROPIC ACTIVITY IN THE ANESTHETIZED DOG
Adult mongrel dogs of either sex are anesthetized with pentobarbital, 35 mg/kg, IV, and are maintained under anesthesia with a continuous infusion of pentobarbital, 3.5 mg/kg/hr. The trachea is intubated, but the animals are permitted to breathe spontaneously. A cannula is inserted into the femoral vein for administering test agents. A Millar catheter tip pressure transducer or a fluid filled catheter is inserted into the ascending aorta via the femoral artery for measuring pressure. A Millar catheter tip pressure transducer is passed into the left ventricle via the left carotid artery for measuring left ventricular blood pressure. Needle electrodes are placed subcutaneously for recording a lead II electrocardiogram. Before administering test agents, control data is acquired over a period of at least thirty minutes.
The test agent is dissolved in dimethylacetamide. Each dose is administered in a volume of 0.5 ml over a period of one minute. Appropriate vehicle controls are also administered.

[2] = test system: isolated Langendorff rat heart; experiment: inotropic and vascular activities in the isolated Langendorff rat heart preparation (CVIH); conditions: LV+dP/dtmax; isolated perfused rat heart; EC20 instead of EC25; read-out: EC20 Contractility
[3] = LV+dP/dtmax, read-out: EC25 Contractility
[4] = coronary flow, read-out: EC25 Flow

Molecule | EC25 [1, 3] [nM] | EC25 [1, 4] [nM] | IC50 (dihydropyridine receptor) [nM] | decrease in blood pressure (anesthetized dog) [%] | increase in contractility (anesthetized dog) [%] | increase in heart rate (anesthetized dog) [%] | EC20 [2] [nM]
CCOC(=O)C1=C(C)N/C(=C\C(=O)c2ccc(N(C)C)cc2)[C@@H](C(=O)OCC)[C@@H]1c1ccccc1C(F)(F)F (relative stereo) [Example 6, (2Z,3α,4β)-(±) -Diethyl-1,2,3,4-tetrahydro-6-methyl-2-[2-oxo-2-4-(dimethylamino)phenyl)ethylidene]-4-[2-(trifluoromethyl)phenyl]-3,5-pyridine-dicarboxylate] | > 3000 | 200 |  |  |  |  | 
CC1=C([N+](=O)[O-])[C@H](c2ccccc2C(F)(F)F)[C@@H](C(=O)c2ccccc2)/C(=C/C(=O)c2ccccc2)N1 (relative stereo) [Example 8, [trans-(Z)]-2-[3-Benzoyl-3,4-dihydro-6-methyl-5-nitro-4-[2-(trifluoromethyl)phenyl]-2-(1H)pyridinylidene]1-phenylethanone] | > 3000 | 300 | > 1000 |  |  |  | 
CCOC(=O)C1=C(C)N/C(=C\C(=O)c2ccccc2)[C@@H](C(=O)OCC)[C@@H]1c1cccc(Cl)c1Cl (relative stereo) [Example 15, (2Z,3α,4β)-(±)-Diethyl-1,2,3,4-tetrahydro-6-methyl-2-[2-oxo-2-phenylethylidene]-4-2,3-dichlorophenyl]-3,5-pyridinedicarboxylate] | 1000 | 1000 | 180 |  |  |  | 
CCOC(=O)C1=C(C)N/C(=C\C(=O)c2ccccc2)[C@@H](C(=O)OCC)[C@@H]1c1ccccc1C(F)(F)F (relative stereo) [Example 1, (2Z,3α,4β)-(±)-Diethyl-1,2,3,4-tetrahydro-6-methyl-2-(2-oxo-2-phenylethylidene)-4-[2-(trifluoromethyl)-phenyl]-3,5-pyridinedicarboxylate] | 100 | 300 | 280 |  |  |  | 
CCOC(=O)C1=C(C)N/C(=C\C(=O)c2ccc(C)cc2)[C@@H](C(=O)OCC)[C@@H]1c1ccccc1C(F)(F)F (relative stereo) [Example 5, (2Z,3α,4β)-Diethyl-2-[2-(4-methylphenyl)-2-oxoethylidene]-1,2,3,4-tetrahydro-6-methyl-4-[2(trifluoromethyl)phenyl]-3,5-pyridinedicarboxylate] | > 3000 | 130 | 360 |  |  |  | 
CCOC(=O)C1=C(C)N/C(=C\C(=O)c2ccccc2)[C@@H](C(=O)OCC)[C@@H]1c1cccc([N+](=O)[O-])c1 (relative stereo) [Example 14, (2Z,3α,4β)-(±)-Diethyl-1,2,3,4-tetrahydro-6-methyl-2-[2-oxo-2-phenylethylidene]-4-[3-nitrophenyl]-3,5-pyridinedioarboxylate] | 1000 | 1000 | 85 |  |  |  | 
CCOC(=O)C1=C(C)N/C(=C\C(=O)c2ccncc2)[C@@H](C(=O)OCC)[C@@H]1c1ccccc1C(F)(F)F (relative stereo) [Example 2] | > 3000 | < 100 | 20 | 21 | 99 | 67 | 
(2Z,3α,4β)-(±)-Diethyl-1,2,3,4-tetrahydro-6-methyl-2-[2-oxo-2-phenylethylidene]-4-[2-nitrophenyl-3,5-pyridinedicarboxylate [Example 13] | 1000 | 1000 | 39 |  |  |  | 
CCOC(=O)[C@@H]1/C(=C/C(=O)c2ccccc2)NC2=C(C(=O)CCC2)[C@H]1c1ccccc1C(F)(F)F (relative stereo) [Example 10] | 2000 | 1400 | > 1000 |  |  |  | 
CCOC(=O)[C@@H]1/C(=C2\CCc3ccccc3C2=O)NC(C)=C(C#N)[C@H]1c1ccccc1C(F)(F)F (relative stereo) [Example 11] |  | 1000 | > 1000 |  |  |  | 1000
CCOC(=O)[C@H]1/C(=C/C(=O)c2ccccc2)NC(C)=C([N+](=O)[O-])[C@@H]1c1ccccc1C(F)(F)F (relative stereo) [Example 7, (2Z,3α,4β)-(±)-1,2,3,4-Tetrahydro-6-methyl-5-nitro-2-[2-oxo-2-phenylethylidene]-4-[2-(trifluoromethyl)phenyl]-3-pyridinedicarboxylic acid ethyl ester] | > 3000 | 100 | 130 |  |  |  | 
CCOC(=O)C1=C(C)NC(=C2CCc3ccccc3C2=O)[C@@H](C(=O)OCC)[C@@H]1c1ccccc1C(F)(F)F (relative stereo) [Example 12] |  |  | > 1000 |  |  |  | 
CCOC(=O)C1=C(C)N/C(=C\C(=O)c2ccccc2)C(C(=O)OCC)C1c1ccccn1 (racemic) [Example 16, (2Z,3α,4β)-(±)-Diethyl-1,2,3,4-tetrahydro-6-methyl-2-[2-oxo-2-phenylethylidene]-4-[2-pyridyl]-3,5-pyridinedicarboxylate] | 1000 | 1000 | 25 |  |  |  | 
CCOC(=O)C1=C(C)N/C(=C\C(=O)c2ccccc2)[C@@H](C(=O)c2ccccc2)[C@@H]1c1ccccc1C(F)(F)F (relative stereo) [Example 9, (4α,5β,6Z)-(±)-Ethyl-5-benzoyl-1,4,5,6-tetrahydro-2-methyl-6-(2-oxo-2-phenylethylidene)-4-[2-trifluoromethyl)phenyl]3-pyridinecarboxylate] | 1200 | 400 | 110 |  |  |  | 
CCOC(=O)C1=C(C)N/C(=C\C(=O)c2ccc(F)cc2)[C@@H](C(=O)OCC)[C@@H]1c1ccccc1C(F)(F)F (relative stereo) [Example 4, (2Z,3α,4β)-Diethyl-2-[2-(4-fluorophenyl)-2-oxoethylidene]-1,2,3,4-tetrahydro-6-methyl-4-[2-(trifluoromethyl)phenyl]-3,5-pyridinedicarboxylate] | > 3000 | 300 | 52 |  |  |  | 
CCOC(=O)C1=C(C)N/C(=C\C(=O)c2ccc(Cl)cc2)[C@@H](C(=O)OCC)[C@@H]1c1ccccc1C(F)(F)F (relative stereo) [Example 3, (2Z,3α,4β)-Diethyl-2-[2-(4-chlorophenyl)-2-oxoethylidene]-1,2,3,4-tetrahydro-6-methyl-4-[2-(trifluoromethyl)phenyl]-3,5-pyridinedicarboxylate] | < 100 | < 100 | 190 |  |  |  | 
